One assay concerns the target PI3Kα (Homo sapiens, UniProt P42336). Kind of assay: PI3K Biochemical Assays (ATP consumption, luciferase-luciferin chemiluminescence). To be noted: PI3Kα 1.5 nM, ATP 1 μM, PIP2 10 μM; percent of ATP consumed. Summed up:
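Kinase activity read as percent ATP consumed via luciferase-luciferin chemiluminescence. 1.5 nM enzyme, 1 μM ATP, 10 μM PIP2 in 50 mM Tris pH 7.5, 1 mM EGTA, 10 mM MgCl2, 1 mM DTT, 0.03% CHAPS; ~2 h at ambient temperature, ATP consumption kept to 40-60%.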

In the next assay the target is mTORC1 (mTOR/GbL/Raptor) (Homo sapiens, UniProt P42345). Kind of assay: mTOR/GbL/Raptor (mTORC1) ELISA Assay. Format: biochemical. Particulars: 0.2 nM mTORC1, 10 μM ATP, 50 nM NHis-tagged 4E-BP1; phosphorylation of 4E-BP1; read-out: IC50. The essentials: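 mTORC1 (0.2 nM) phosphorylated NHis-tagged 4E-BP1 (50 nM) with 10 μM ATP in 20 mM Hepes pH 7.2, 10 mM MnCl2, for 120 min at ambient temperature. Product was captured on Ni-chelate plates and detected with anti-phospho-4E-BP1 plus HRP secondary antibody by chemiluminescence.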

Chain of PI3Kα (P42336 whole entry): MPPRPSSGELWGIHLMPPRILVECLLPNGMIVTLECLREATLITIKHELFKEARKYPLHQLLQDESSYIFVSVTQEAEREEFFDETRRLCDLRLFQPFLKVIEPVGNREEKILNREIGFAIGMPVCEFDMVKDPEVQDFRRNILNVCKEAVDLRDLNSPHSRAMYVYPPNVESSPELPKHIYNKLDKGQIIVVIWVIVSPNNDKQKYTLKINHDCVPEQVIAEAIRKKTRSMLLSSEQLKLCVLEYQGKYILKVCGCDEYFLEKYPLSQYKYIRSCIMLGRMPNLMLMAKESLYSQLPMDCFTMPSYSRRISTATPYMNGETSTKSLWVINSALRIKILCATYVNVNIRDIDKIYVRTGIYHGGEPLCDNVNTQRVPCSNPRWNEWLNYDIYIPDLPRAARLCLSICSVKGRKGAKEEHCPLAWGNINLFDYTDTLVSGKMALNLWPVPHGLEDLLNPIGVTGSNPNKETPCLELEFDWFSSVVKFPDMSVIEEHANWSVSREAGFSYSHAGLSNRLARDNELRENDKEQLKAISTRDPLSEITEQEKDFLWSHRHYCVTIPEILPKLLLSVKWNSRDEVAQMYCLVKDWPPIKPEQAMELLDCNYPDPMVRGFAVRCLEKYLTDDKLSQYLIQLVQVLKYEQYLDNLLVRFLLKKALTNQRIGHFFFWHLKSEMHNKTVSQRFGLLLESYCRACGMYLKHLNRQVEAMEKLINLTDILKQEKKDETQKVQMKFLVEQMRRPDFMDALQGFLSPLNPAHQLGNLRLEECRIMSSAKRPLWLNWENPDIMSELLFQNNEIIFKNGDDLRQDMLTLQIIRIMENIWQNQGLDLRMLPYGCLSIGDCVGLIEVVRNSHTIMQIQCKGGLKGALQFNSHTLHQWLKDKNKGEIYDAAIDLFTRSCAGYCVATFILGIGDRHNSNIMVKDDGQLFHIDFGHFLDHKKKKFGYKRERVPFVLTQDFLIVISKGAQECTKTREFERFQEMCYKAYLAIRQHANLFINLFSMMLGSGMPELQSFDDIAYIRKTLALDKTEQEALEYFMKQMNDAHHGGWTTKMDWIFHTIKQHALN
Chain of PI3Kα (P27986 whole entry partner): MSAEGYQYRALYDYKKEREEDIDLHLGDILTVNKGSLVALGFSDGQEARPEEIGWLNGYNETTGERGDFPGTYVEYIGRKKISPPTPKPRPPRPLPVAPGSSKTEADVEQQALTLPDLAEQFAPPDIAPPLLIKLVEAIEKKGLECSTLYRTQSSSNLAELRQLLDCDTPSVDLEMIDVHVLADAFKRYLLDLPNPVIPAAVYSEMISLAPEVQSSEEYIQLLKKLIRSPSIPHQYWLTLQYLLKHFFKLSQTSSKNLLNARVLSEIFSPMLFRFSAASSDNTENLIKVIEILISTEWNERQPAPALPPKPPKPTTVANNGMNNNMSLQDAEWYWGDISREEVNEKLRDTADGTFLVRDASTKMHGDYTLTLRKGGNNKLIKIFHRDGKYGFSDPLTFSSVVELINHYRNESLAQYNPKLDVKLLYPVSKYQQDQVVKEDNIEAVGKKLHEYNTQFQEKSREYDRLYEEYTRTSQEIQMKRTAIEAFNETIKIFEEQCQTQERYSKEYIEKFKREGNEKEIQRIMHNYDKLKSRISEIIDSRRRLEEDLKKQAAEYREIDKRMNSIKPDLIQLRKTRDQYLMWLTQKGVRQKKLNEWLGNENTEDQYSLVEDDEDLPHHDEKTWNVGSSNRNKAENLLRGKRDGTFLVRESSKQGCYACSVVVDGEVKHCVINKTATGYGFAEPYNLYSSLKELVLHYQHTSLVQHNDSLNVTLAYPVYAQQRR

Consider `O=C1CCN(C(=O)N2CCOc3ccc(-c4cnc5[nH]cnc5c4)cc3C2)C(c2cccc(F)c2)C1` (centres unmarked) [Compound 52, 2-(3-fluorophenyl)-1-{[7-(3H-imidazo[4,5-b]pyridin-6-yl)-2,3-dihydro-1,4-benzoxazepin-4(5H)-yl]carbonyl}piperidin-4-one], for which the results for the IC50 at PI3Kα and at mTORC1 (mTOR/GbL/Raptor) were 200 to 500 nM and 50 to 250 nM, respectively.

Take `O=C1CCN(C(=O)N2CCOc3ccc(-c4ccc(-c5ncc[nH]5)cc4)cc3C2)C(c2ccc(F)c(F)c2)C1` (centres unmarked) [Compound 53, 2-(3,4-difluorophenyl)-1-({7-[4-(1H-imidazol-2-yl)phenyl]-2,3-dihydro-1,4-benzoxazepin-4(5H)-yl}carbonyl)piperidin-4-one]: the IC50 on PI3Kα is no more than 75 nM; at mTORC1 (mTOR/GbL/Raptor), no more than 50 nM.

Turning to `O=C1CCN(C(=O)N2CCOc3ccc(-c4ccc(-c5ncc[nH]5)cc4)cc3C2)C(c2ccc(F)cc2)C1` (centres unmarked) [Compound 54, 2-(4-fluorophenyl)-1-({7-[4-(1H-imidazol-2-yl)phenyl]-2,3-dihydro-1,4-benzoxazepin-4(5H)-yl}carbonyl)piperidin-4-one], the results for the IC50 against PI3Kα and on mTORC1 (mTOR/GbL/Raptor) were no more than 75 nM and no more than 50 nM, respectively.

Take `O=C1CCN(C(=O)N2CCOc3ccc(-c4ccc(-c5ncc[nH]5)cc4)cc3C2)C(c2cccc(F)c2)C1` (centres unmarked) [Compound 55, 2-(3-fluorophenyl)-1-({7-[4-(1H-imidazol-2-yl)phenyl]-2,3-dihydro-1,4-benzoxazepin-4(5H)-yl}carbonyl)piperidin-4-one]: the IC50 against PI3Kα is no more than 75 nM; on mTORC1 (mTOR/GbL/Raptor), no more than 50 nM.

Regarding `O=C1CCN(C(=O)N2CCOc3ccc(-c4ccc(-c5ncc[nH]5)cc4)cc3C2)[C@@H](c2ccc(F)cc2)C1` [Compound 56, (2R)-2-(4-fluorophenyl)-1-({7-[4-(1H-imidazol-2-yl)phenyl]-2,3-dihydro-1,4-benzoxazepin-4(5H)-yl}carbonyl)piperidin-4-one], the IC50 was no more than 75 nM against PI3Kα and no more than 50 nM on mTORC1 (mTOR/GbL/Raptor).

In the case of `O=C1CCN(C(=O)N2CCOc3ccc(-c4ccc(-c5ncc[nH]5)cc4)cc3C2)[C@H](c2ccc(F)cc2)C1` [Compound 57, (2S)-2-(4-fluorophenyl)-1-({7-[4-(1H-imidazol-2-yl)phenyl]-2,3-dihydro-1,4-benzoxazepin-4(5H)-yl}carbonyl)piperidin-4-one], the values for the IC50 against PI3Kα and at mTORC1 (mTOR/GbL/Raptor) were no more than 75 nM and no more than 50 nM, respectively.

`O=C(N1CCC(CF)CC1)N1CCOc2ccc(-c3ccc(-c4ncc[nH]4)cc3)cc2C1` [Compound 58, 4-{[4-(fluoromethyl)piperidin-1-yl]carbonyl}-7-[4-(1H-imidazol-2-yl)phenyl]-2,3,4,5-tetrahydro-1,4-benzoxazepine]: the figures for the IC50 against PI3Kα and on mTORC1 (mTOR/GbL/Raptor) were 75 to 200 nM and no more than 50 nM, respectively.

As for `O=C(N1CCOc2ccc(-c3ccc(-c4ncc[nH]4)cc3)cc2C1)N1[C@@H]2CC[C@H]1C[C@](O)(C(F)(F)F)C2` [Compound 59, 8-({7-[4-(1H-imidazol-2-yl)phenyl]-2,3-dihydro-1,4-benzoxazepin-4(5H)-yl}carbonyl)-3-(trifluoromethyl)-8-azabicyclo[3.2.1]octan-3-(endo)-ol], the IC50 against PI3Kα was no more than 75 nM; on mTORC1 (mTOR/GbL/Raptor), no more than 50 nM.

Consider `CC1CCN(C(=O)N2CCOc3ccc(-c4ccc(-c5ncc[nH]5)cc4)cc3C2)CC1` [Compound 60, 7-[4-(1H-imidazol-2-yl)phenyl]-4-[(4-methylpiperidin-1-yl)carbonyl]-2,3,4,5-tetrahydro-1,4-benzoxazepine], for which the IC50 against PI3Kα was no more than 75 nM; on mTORC1 (mTOR/GbL/Raptor), no more than 50 nM.

Take `N#CC1CCN(C(=O)N2CCOc3ccc(-c4ccc(-c5ncc[nH]5)cc4)cc3C2)CC1` [Compound 61, 1-({7-[4-(1H-imidazol-2-yl)phenyl]-2,3-dihydro-1,4-benzoxazepin-4(5H)-yl}carbonyl)piperidine-4-carbonitrile]: the IC50 against PI3Kα was 75 to 200 nM; at mTORC1 (mTOR/GbL/Raptor), no more than 50 nM.

Regarding `O=C(N1CCC(C(F)F)CC1)N1CCOc2ccc(-c3ccc(-c4ncc[nH]4)cc3)cc2C1` [Compound 62, 4-{[4-(difluoromethyl)piperidin-1-yl]carbonyl}-7-[4-(1H-imidazol-2-yl)phenyl]-2,3,4,5-tetrahydro-1,4-benzoxazepine], the IC50 was 75 to 200 nM against PI3Kα and no more than 50 nM at mTORC1 (mTOR/GbL/Raptor).

Turning to `N#CC1CCN(C(=O)N2CCOc3ccc(-c4ccc(-c5ncc[nH]5)nc4)cc3C2)CC1` [Compound 63, 1-({7-[6-(1H-imidazol-2-yl)pyridin-3-yl]-2,3-dihydro-1,4-benzoxazepin-4(5H)-yl}carbonyl)piperidine-4-carbonitrile], the IC50 fell in the range of 500 to 1000 nM at PI3Kα and 50 to 250 nM at mTORC1 (mTOR/GbL/Raptor).

`O=C1CCN(C(=O)N2CCOc3ccc(-c4ccc(C(=O)NCC(F)F)cc4)cc3C2)C(c2cccc(F)c2)C1` (centres unmarked) [Compound 64, N-(2,2-difluoroethyl)-4-(4-{[2-(3-fluorophenyl)-4-oxopiperidin-1-yl]carbonyl}-2,3,4,5-tetrahydro-1,4-benzoxazepin-7-yl)benzamide]: the IC50 on PI3Kα is 500 to 1000 nM; at mTORC1 (mTOR/GbL/Raptor) it was 50 to 250 nM.

Regarding `Cc1nc2ccc(-c3ccc4c(c3)CN(C(=O)N3CCCC[C@@H]3c3ccccc3)CCO4)cc2[nH]1` [Compound 66, 7-(2-methyl-1H-benzimidazol-6-yl)-4-{[(2R)-2-phenylpiperidin-l-yl]carbonyl}-2,3,4,5-tetrahydro-1,4-benzoxazepine], the IC50 against PI3Kα was no more than 75 nM; at mTORC1 (mTOR/GbL/Raptor), no more than 50 nM.

Take `Cc1nc2ccc(-c3ccc4c(c3)CN(C(=O)N3CCC(F)(F)CC3)CCO4)cc2[nH]1` [Compound 67, 4-[(4,4-difluoropiperidin-1-yl)carbonyl]-7-(2-methyl-1H-benzimidazol-6-yl)-2,3,4,5-tetrahydro-1,4-benzoxazepine]: the IC50 against PI3Kα was 1000 to 3000 nM; on mTORC1 (mTOR/GbL/Raptor), 250 to 700 nM.

On to `Cc1nc2ccc(-c3ccc4c(c3)CN(C(=O)N3CCC(O)CC3)CCO4)cc2[nH]1` [Compound 68, 1-{[7-(2-methyl-1H-benzimidazol-6-yl)-2,3-dihydro-1,4-benzoxazepin-4(5H)-yl]carbonyl}piperidin-4-ol], for which the IC50 was 1000 to 3000 nM against PI3Kα and 250 to 700 nM on mTORC1 (mTOR/GbL/Raptor).

Take `Cc1nc2ccc(-c3ccc4c(c3)CN(C(=O)N3CCC(Cc5ccc(Cl)cc5)CC3)CCO4)cc2[nH]1` [Compound 69, 4-({4-[(4-chlorophenyl)methyl]piperidin-1-yl}carbonyl)-7-(2-methyl-1H-benzimidazol-6-yl)-2,3,4,5-tetrahydro-1,4-benzoxazepine]: the half-maximal inhibitory concentration (IC50) lay in the range of 1000 to 3000 nM against PI3Kα and 50 to 250 nM at mTORC1 (mTOR/GbL/Raptor).

For `Cc1nc2ccc(-c3ccc4c(c3)CN(C(=O)N3CCC(Oc5ccc(Cl)cc5)CC3)CCO4)cc2[nH]1` [Compound 70, 4-({4-[(4-chlorophenyl)oxy]piperidin-1-yl}carbonyl)-7-(2-methyl-1H-benzimidazol-6-yl)-2,3,4,5-tetrahydro-1,4-benzoxazepine], the IC50 against PI3Kα is 1000 to 3000 nM; on mTORC1 (mTOR/GbL/Raptor), 50 to 250 nM.

In the case of `CCC1CCCN(C(=O)N2CCOc3ccc(-c4ccc5nc(C)[nH]c5c4)cc3C2)C1` (centres unmarked) [Compound 72, 4-[(3-ethylpiperidin-1-yl)carbonyl]-7-(2-methyl-1H-benzimidazol-6-yl)-2,3,4,5-tetrahydro-1,4-benzoxazepine], the IC50 lay within 200 to 500 nM against PI3Kα and 50 to 250 nM on mTORC1 (mTOR/GbL/Raptor).

Turning to `Cc1nc2ccc(-c3ccc4c(c3)CN(C(=O)N3CCCCC3c3ccc(F)cc3)CCO4)cc2[nH]1` (centres unmarked) [Compound 73, 4-{[2-(4-fluorophenyl)piperidin-1-yl]carbonyl}-7-(2-methyl-1H-benzimidazol-6-yl)-2,3,4,5-tetrahydro-1,4-benzoxazepine], the results for the half-inhibitory concentration (IC50) against PI3Kα and at mTORC1 (mTOR/GbL/Raptor) were no more than 75 nM and no more than 50 nM, respectively.

For `CCOC(=O)[C@H]1CCCN(C(=O)N2CCOc3ccc(-c4ccc5nc(C)[nH]c5c4)cc3C2)C1` [Compound 74, ethyl (3S)-1-{[7-(2-methyl-1H-benzimidazol-6-yl)-2,3-dihydro-1,4-benzoxazepin-4(5H)-yl]carbonyl}piperidine-3-carboxylate], the IC50 against PI3Kα was 1000 to 3000 nM; at mTORC1 (mTOR/GbL/Raptor), 250 to 700 nM.

As for `CCOC(=O)C1CCCCN1C(=O)N1CCOc2ccc(-c3ccc4nc(C)[nH]c4c3)cc2C1` (centres unmarked) [Compound 75, ethyl 1-{[7-(2-methyl-1H-benzimidazol-6-yl)-2,3-dihydro-1,4-benzoxazepin-4(5H)-yl]carbonyl}piperidine-2-carboxylate], the results for the IC50 against PI3Kα and on mTORC1 (mTOR/GbL/Raptor) were 1000 to 3000 nM and 700 to 2600 nM, respectively.

With `CCC1CCC(C)N(C(=O)N2CCOc3ccc(-c4ccc5nc(C)[nH]c5c4)cc3C2)C1` (centres unmarked) [Compound 76, 4-[(5-ethyl-2-methylpiperidin-1-yl)carbonyl]-7-(2-methyl-1H-benzimidazol-6-yl)-2,3,4,5-tetrahydro-1,4-benzoxazepine], the IC50 on PI3Kα lay within 200 to 500 nM; on mTORC1 (mTOR/GbL/Raptor), 50 to 250 nM.

For the compound `Cc1nc2ccc(-c3ccc4c(c3)CN(C(=O)N3CCC(C)(O)CC3)CCO4)cc2[nH]1` [Compound 79, 4-methyl-1-{[7-(2-methyl-1H-benzimidazol-6-yl)-2,3-dihydro-1,4-benzoxazepin-4(5H)-yl]carbonyl}piperidin-4-ol], the IC50 against PI3Kα lay in the range of 500 to 1000 nM; on mTORC1 (mTOR/GbL/Raptor), 50 to 250 nM.

Consider `Cc1nc2ccc(-c3ccc4c(c3)CN(C(=O)N3CCCCC3c3cccc(F)c3)CCO4)cc2[nH]1` (centres unmarked) [Compound 81, 4-{[2-(3-fluorophenyl)piperidin-1-yl]carbonyl}-7-(2-methyl-1H-benzimidazol-6-yl)-2,3,4,5-tetrahydro-1,4-benzoxazepine], for which the IC50 against PI3Kα is no more than 75 nM; at mTORC1 (mTOR/GbL/Raptor) it was no more than 50 nM.

For the origin of these results see US8637499B2, “Benzoxazepines as inhibitors of PI3K/mTOR and methods of their use and manufacture” (Exelixis, Inc., priority 2009, dated 2014).
